ChEMBL document CHEMBL4385653, “Design, synthesis, biological evaluation of benzoyl amide derivatives containing nitrogen heterocyclic ring as potential VEGFR-2 inhibitors” (Bioorg Med Chem, 2019)

Assays:
MCF7 [1] = experiment: Inhibition of cell migration of human MCF7 cells at 4 uM by wound healing assay; type: functional, cell-based; conditions: TDE = time-dependent effect
MCF7 [2] = experiment: Inhibition of cell migration of human MCF7 cells assessed as relative distance between the edges of the wound at 4 uM incubated for 12 hrs by wound healing assay (reference value: 87.55%); type: functional; set-up: scale not given: the % may be the effect or the level left
HepG2 = experiment: Antiproliferative activity against human HepG2 cells assessed as inhibition of cell proliferation incubated for 48 hrs by MTT assay; type: functional, cell-based; conditions: HepG2, 48 h
MCF7 [3] = experiment: Induction of apoptosis in human MCF7 cells assessed as viable cells level at 2 uM incubated for 24 hrs by Annexin V-FITC/PI double staining based flow cytometry analysis (reference value: 82%); type: functional
MCF7 [4] = experiment: Induction of apoptosis in human MCF7 cells assessed as early apoptotic cells level at 4 uM incubated for 24 hrs by Annexin V-FITC/PI double staining based flow cytometry analysis (reference value: 6.37%); type: functional
MCF7 [5] = experiment: Induction of apoptosis in human MCF7 cells assessed as late apoptotic cells level at 8 uM incubated for 24 hrs by Annexin V-FITC/PI double staining based flow cytometry analysis (reference value: 10.1%); type: functional
MCF7 [6] = experiment: Induction of apoptosis in human MCF7 cells assessed as early apoptotic cells level at 4 uM incubated for 12 hrs by Annexin V-FITC/PI double staining based flow cytometry analysis (reference value: 1.06%); type: functional
MCF7 [7] = experiment: Induction of apoptosis in human MCF7 cells assessed as late necrotic cells level at 4 uM incubated for 12 hrs by Annexin V-FITC/PI double staining based flow cytometry analysis (reference value: 6.88%); type: functional
MCF7 [8] = experiment: Induction of apoptosis in human MCF7 cells assessed as late apoptotic cells level at 4 uM incubated for 24 hrs by Annexin V-FITC/PI double staining based flow cytometry analysis (reference value: 3.1%); type: functional
MCF7 [9] = experiment: Induction of apoptosis in human MCF7 cells assessed as viable cells level at 4 uM incubated for 36 hrs by Annexin V-FITC/PI double staining based flow cytometry analysis (reference value: 89%); type: functional

Cc1ccc(-n2cc(NC(=O)c3cccc(NS(=O)(=O)c4ccc(Cl)cc4)c3)cn2)cc1
inhibition (MCF7 [1]): Tde | Activity (MCF7 [2]): 90.9% | IC50 (HepG2): 2440 nM | Activity (MCF7 [3]): 70.3% | Activity (MCF7 [4]): 11.9% | Activity (MCF7 [5]): 45.2% | Activity (MCF7 [6]): 22.7% | Activity (MCF7 [7]): 0.349% | Activity (MCF7 [8]): 18.7% | Activity (MCF7 [9]): 47.6%
